In patent publication US11202789B2, “Method of treating glycogen storage disease” (Viking Therapeutics, Inc., priority 2016, dated 2021):
Entries after “also recorded” stand apart in the source; their conditions may differ.

How the values were obtained:
Type in all cases: in vivo
beagle dogs = experiment: Compound 2 dosing study in dogs: plasma cholesterol; conditions: for average reduction of total plasma cholesterol levels: Day 15, from baseline
Experimental: Compound 2 Dosing Study in Dogs: The objective of the study was to determine the effects of oral administration of Compound 2 once-daily for 14 days followed by alternate day dosing for 14 days on plasma cholesterol levels and indicators of thyroid function in beagle dogs. Compound 2 was formulated with Lutrol F68 NF (Poloxomer 188) and carboxymethylcellulose (CMC; sodium salt/high viscosity) and was administered as a suspension in 0.5% CMC/1% Lutrol in deionized water. […] At the end of the treatment cycle (Cycle 1), the dogs were washed out for 4 weeks and then entered into a second 14-day treatment cycle. Cycle 2 employed the same dosing paradigm as Cycle 1, but animals were randomized to Cycle 2 in such a way that the combined dosing groups from the two cycles consisted of 4 different animals (2 males, 2 females) each. At the conclusion of Cycle 2, dosing was continued on alternate days for an additional 14-day period (Cycle 2 Extension). Blood samples were collected at baseline and appropriate time intervals thereafter and analyzed for total plasma cholesterol levels, serum levels of total T4 (tT4), free T4 (fT4), total T3 (tT3), free T3 (fT3), and thyroid stimulating hormone (TSH).

[1] = system: male Zucker Diabetic fatty (ZDF) rats; experiment: 4-week (28 days) efficacy and safety study in male Zucker Diabetic fatty (ZDF) rats
Experimental: Objectives: The objective of the study was to evaluate the efficacy and safety of Compound 2 treatment for 4 weeks in male Zucker Diabetic fatty (ZDF) rats. Total plasma cholesterol, blood glucose levels, liver and muscle glycogen levels, and a plasma clinical chemistry were evaluated. Additionally, histological and biochemical assessments of hepatic steatosis were performed post-mortem. MB07875, a known human thyroid hormone receptor ligand, was included as a comparator in these studies.
Methods: Eight-week old male ZDF rats (n=5/group) were treated orally with Compound 2 or MB07875 for 28 days. The doses of Compound 2 [in 0.5% carboxymethylcellulose (CMC)] were 0.25, 0.5, 1, 2.5, 5, 15 and 50 mg/kg/day. The dose of MB07875 (in 0.5% CMC) was 0.2 mg/kg/day. Body weight was assessed just prior to treatment and at 24 hours following the last dose. Total plasma cholesterol and blood glucose were measured on a weekly basis. […] In addition, the liver was removed and weighed, and a portion freeze-clamped for glycogen and triglyceride analysis. Another portion was placed in 10% neutral buffered formalin for hematoxalin and eosin (H & E) staining. Finally, the heart was excised and weighed.

G6PC−/− mice = experiment: G6PC−/− mouse model of GSD Ia (Example 12)
Experimental: (§1) Compound 2 was tested in a G6PC−/−mouse model of GSD Ia. Daily injection of 0.1 to 0.2 mL 10% dextrose subcutaneously was initiated within 3 days of age for G6PC−/−mice. All G6PC−/−mice continued to receive daily dextrose injections during this time. Blood was collected at time of euthanasia, when tissues were collected. Two groups of 4 G6PC−/−mice (1 group treated with Compound 2, 1 group treated with vehicle) were analyzed to identify statistically significant differences between Compound 2-treated and vehicle-treated controls. We also treated 2 groups of 3 normal (wild type) mice, one with Compound 2 and one with vehicle.
(§2) Initially the GSD Ia mice were treated with Compound 2 from 5 to 10 days of age. Body mass, liver mass, liver glycogen concentration, liver triglycerides, fasting serum glucose, fasting serum triglycerides, and GSD-related cell signaling pathways were examined. Similarly, groups of GSD Ia mice were treated with vehicle for 5 days to serve as mock-treated controls for all assays. Groups of 3-4 mice were evaluated. GSD Ia mice were treated for >7 days to assess survival and longer-term effects of Compound 2 as described above (GSD Ia mice rarely survive >12 days of life without a therapeutic intervention). Metabolomic analysis of hepatic extracts were performed as described (Sinha, Farah et al. (2013), Hepatology 59(4):1366-80). Acylcarnitine and amino acid profiling were employed to detect any changes related to increased lipolysis and fatty acid beta-oxidation as described by Sinha et al. (Sinha, Farah et al. (2013), Hepatology 59(4):1366-80). […] Mean liver triglyceride content was reduced by more than 60% in Compound 2-treated animals relative to vehicle-treated control animals, while average liver weight was reduced by more than 30% vs. controls. Importantly, average liver weight as a percent of total body weight also declined by approximately 20% in treated vs. control animals. Further, treatment with Compound 2 led to statistically significant reductions in key metabolic markers of GSD Ia.

normal (wild type) mice = experiment: Wild type mice treated alongside the G6PC−/− model (Example 12); conditions: wild type (wt) mice
Experimental: as §1, §2

[2] = Compound 2 0.25-50 mg/kg/day oral, 28 days

SMILES: Cc1cc(OCP2(=O)OCCC(c3cccc(Cl)c3)O2)cc(C)c1Cc1ccc(O)c(C(C)C)c1 (stereo not shown) [Compound 2]
- effects on total plasma cholesterol levels (beagle dogs; 0.1 mg/kg/day oral once-daily): minimal effects
- average reduction of total plasma cholesterol levels from baseline (beagle dogs; Day 15, 0.3 mg/kg/day oral once-daily for 14 days): ~22%
- average reduction of total plasma cholesterol levels from baseline (beagle dogs; Day 15, 10 mg/kg/day oral once-daily for 14 days): ~47%
- average reduction of total plasma cholesterol levels (beagle dogs; 0.3 mg/kg/day oral once-daily for 14 days): ~28 mg/dL
- average reduction of total plasma cholesterol levels (beagle dogs; 10 mg/kg/day oral once-daily for 14 days): ~71 mg/dL
- total plasma cholesterol levels relative to vehicle-treated animals (beagle dogs; alternate day dosing for 14 days (Cycle 2 Extension)): remained reduced relative to vehicle-treated animals to a similar or greater extent than observed after once-daily dosing
- reduction of total plasma cholesterol ([1]; 1 mg/kg/day oral, day 28, vs vehicle): ~25%
- total bilirubin increased ([1]; 2.5 mg/kg/day oral, day 28): ~86%
- blood glucose levels decreased ([1]; 2.5 mg/kg/day oral, day 28, vs vehicle): ~47%
- albumin-to-globulin ratio increased ([1]; 15 mg/kg/day oral, day 28): 21%
- blood urea nitrogen decreased ([1]; 15 mg/kg/day oral, day 28): ~21%
- liver glycogen levels reduced ([1]; 50 mg/kg/day oral, 28 days, dose-dependent): > 90%
- albumin-to-globulin ratio increased ([1]; 50 mg/kg/day oral, day 28): 32%
- alkaline phosphatase decrease ([1]; 50 mg/kg/day oral, day 28): ~42%
- blood urea nitrogen decreased ([1]; 50 mg/kg/day oral, day 28): ~26%
- calcium levels decreased ([1]; 50 mg/kg/day oral, day 28): ~5%
- phosphorus levels increased ([1]; 50 mg/kg/day oral, day 28): ~27%
- total bilirubin increased ([1]; 50 mg/kg/day oral, day 28): ~79%
- total protein levels decreased ([1]; 50 mg/kg/day oral, day 28): ~10%
- reduction of total plasma cholesterol ([1]; 50 mg/kg/day oral, day 28, vs vehicle): ~34%
- effect on body weight [1, 2]: no significant effect
- effect on heart weight [1, 2]: no significant effect
- liver triglyceride content [1, 2]: no statistically significant decrease
- muscle glycogen levels ([1]; Compound 2 0.25-50 mg/kg/day oral, 28 days, vs vehicle): unaffected; also recorded: no significant differences
- blood glucose levels ([1]; Compound 2-treated groups (0.25-50 mg/kg/day), any time during the study): not increased
- globulin decreased ([1]; doses of 5 mg/kg/day and above, oral, day 28): ≤ 25%
- microvesicular steatosis, histological analysis of liver sections ([1]; doses ≥2.5 mg/kg/day oral, 28 days): decrease
- decrease in liver glycogen levels relative to vehicle ([1]; highest dose evaluated (50 mg/kd/day), after 28 days of dosing): ~90%
- cardiovascular function (heart rate, systolic and diastolic aortic pressure, LV dP/dt) ([1]; up to 50 mg/kg/day oral, 28 days): did not alter
- average liver weight reduced (G6PC−/− mice; Compound 2-treated vs controls): more than 30%
- mean liver triglyceride content reduced (G6PC−/− mice; Compound 2-treated vs vehicle-treated control animals): more than 60%
- body mass (G6PC−/− mice; G6PC−/− mice, vs vehicle-treated controls (FIG. 15)): reduced
- liver mass (G6PC−/− mice; G6PC−/− mice, vs vehicle-treated controls (FIG. 16)): reduced
- liver mass as a percentage of body mass (G6PC−/− mice; G6PC−/− mice, vs vehicle-treated controls (FIG. 17)): reduced
- liver glycogen levels (G6PC−/− mice; G6PC−/− mice, vs vehicle-treated controls (FIG. 18)): somewhat enhanced
- serum triglycerides (G6PC−/− mice; G6PC−/− mice, vs vehicle-treated controls (FIG. 19)): somewhat enhanced
- liver triglyceride concentrations (G6PC−/− mice; G6PC−/− mice, vs vehicle-treated controls (FIG. 20)): reduced
- total liver triglycerides (G6PC−/− mice; G6PC−/− mice, vs vehicle-treated controls (FIG. 21)): reduced
- average liver weight as a percent of total body weight declined (G6PC−/− mice; treated vs control animals): approximately 20%
- body mass (normal (wild type) mice; vs vehicle-treated controls (FIG. 15)): reduced
- liver mass (normal (wild type) mice; vs vehicle-treated controls (FIG. 16)): reduced
- liver mass as a percentage of body mass (normal (wild type) mice; vs vehicle-treated controls (FIG. 17)): reduced
- liver glycogen levels (normal (wild type) mice; vs vehicle-treated controls (FIG. 18)): significantly reduced
- serum triglycerides (normal (wild type) mice; vs vehicle-treated controls (FIG. 19)): somewhat enhanced
- liver triglyceride concentrations (normal (wild type) mice; vs vehicle-treated controls (FIG. 20)): reduced
- total liver triglycerides (normal (wild type) mice; vs vehicle-treated controls (FIG. 21)): reduced
